# According to publication PMC9465256, “Discovering monoacylglycerol lipase inhibitors by a combination of fluorogenic substrate assay and activity-based protein profiling” (Frontiers in Pharmacology, 2022):
# Structures can show the parent of a compound that is named as a salt.
# Tests used:
# Assay type in all cases: biochemical
# [1] = target: T1, human MAGL (Homo sapiens, UniProt Q99685); experiment: MAGL activity assay (AA-HNA fluorogenic substrate); details: read-out: MAGL Inhibition (%); for activity / activity at 100 µM: 100 µM, AA-HNA substrate assay, Supplementary Table 1
# T1 construct: expressed in transfected cells; host or cells: HEK293T (transient transfection; membrane fraction)
# T1 sequence (Q99685 1-303): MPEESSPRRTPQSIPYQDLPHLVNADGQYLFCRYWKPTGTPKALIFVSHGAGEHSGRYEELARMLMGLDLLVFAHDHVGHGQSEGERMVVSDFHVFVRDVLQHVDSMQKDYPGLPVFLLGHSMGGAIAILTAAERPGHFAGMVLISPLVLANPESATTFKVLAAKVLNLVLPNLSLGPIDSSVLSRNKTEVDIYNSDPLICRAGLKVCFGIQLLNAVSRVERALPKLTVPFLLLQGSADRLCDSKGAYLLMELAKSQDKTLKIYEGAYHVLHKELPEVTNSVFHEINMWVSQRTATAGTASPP
# Description: (§1) HEK293T cells were cultured at 37°C under 5% CO2 in a DMEM medium with stable glutamine and phenolred, containing 10% fetal bovine serum (FBS, Gibco), penicillin, and streptomycin. The cells were passaged every 2–3 days by resuspension in the medium at ∼90% confluence. The membranes used in this study were prepared from transiently transfected HEK293T cells. Briefly, 1 day prior to transfection, ∼10^7 cells were seeded in 15 cm plates, and then the cells were transfected by the addition of a mixture of polyethyleneimine and plasmid DNA (3:1, 60, and 20 µg) in 2 ml of medium (without serum). Of note, the empty pcDNA3.1 vector was used in the Mock-control. After 24 h, the medium was removed and the cells were refreshed with fresh medium. After 72 h, the cells were harvested by suspending in 20 ml of medium, and the supernatant was removed by centrifugation for 10 min at 1,000 rpm. The cell pellet was flash frozen in liquid nitrogen and stored at −80°C until use. Subsequently, the cell pellets were suspended in lysis buffer (30 mM Tirs, pH 7.5, 1 mM MgCl2, 25 U/ml Benzonase), which was homogenized by sonication (3 × 10 bursts) and incubated for 30 min on ice. The membrane fractions overexpressing MAGL/ABHD6/ABHD12 were separated by ultracentrifuge (100,000 g, 30 min, 4 C). The protein concentration was determined with a Qubit protein assay (Invitrogen). The protein samples were quickly frozen in liquid nitrogen and stored at −80 C until use.
# The MAGL activity assay is based on the hydrolysis of 2-arachidonoylglycerol-based fluorogenic substrate by MAGL-overexpressing membrane preparations from transiently transfected HEK293T cells. In brief, the reactions were performed in HEPES buffer (40 mM HEPES, pH 7.5, 0.1 mg/ml BSA) in black, flat bottom 96-well plates. […] After the incubation of the inhibitor-protein complex for 30 min, 10 µl of the fluorogenic substrate (AA-HNA, 200 µM) was added and fluorescence was measured in 1 min intervals for 30 min on a plate reader (BioTek). […] All the measurements were performed in N = 2, n = 2 for inhibitors and N = 2, n = 4 for controls with Z′ value ≥0.6. The slope is determined in 5–15 min for all the experiments.
# [2] = target: T2, human ABHD6 (Homo sapiens, UniProt Q9BV23); experiment: ABHD6 activity assay (AA-HNA fluorogenic substrate); details: for activity / activity at 100 µM: 100 µM, AA-HNA substrate assay, Supplementary Table 2; for activity / activity at 100 µM / percent inhibition of ABHD6 at 100 µM: read-out: ABHD6 Inhibition (%)
# T2 construct: expressed in transfected cells; host or cells: HEK293T (transient transfection; membrane fraction)
# T2 sequence (Q9BV23 1-337): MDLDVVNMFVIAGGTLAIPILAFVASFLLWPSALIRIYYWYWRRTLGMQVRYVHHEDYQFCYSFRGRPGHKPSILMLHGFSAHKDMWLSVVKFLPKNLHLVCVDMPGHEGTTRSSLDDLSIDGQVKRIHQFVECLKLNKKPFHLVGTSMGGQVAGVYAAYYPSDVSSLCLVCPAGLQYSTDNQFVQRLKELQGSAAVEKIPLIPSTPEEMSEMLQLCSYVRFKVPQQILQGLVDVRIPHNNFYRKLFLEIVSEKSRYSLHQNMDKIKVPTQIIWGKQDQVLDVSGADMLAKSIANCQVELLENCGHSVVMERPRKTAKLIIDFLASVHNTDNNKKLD
# Description: as §1
# The MAGL activity assay is based on the hydrolysis of 2-arachidonoylglycerol-based fluorogenic substrate by MAGL-overexpressing membrane preparations from transiently transfected HEK293T cells. In brief, the reactions were performed in HEPES buffer (40 mM HEPES, pH 7.5, 0.1 mg/ml BSA) in black, flat bottom 96-well plates. The final protein concentration of membrane fractions from overexpressing human MAGL HEK293T cells was 12.5 μg/ml 5 µl of inhibitors were added from×40 concentrated DMSO stocks in the 96-well plate containing 145 µl assay buffer, followed by the addition of 40 µl of the protein (12.5 μg/ml). After the incubation of the inhibitor-protein complex for 30 min, 10 µl of the fluorogenic substrate (AA-HNA, 200 µM) was added and fluorescence was measured in 1 min intervals for 30 min on a plate reader (BioTek). Final assay concentrations: 12.5 μg/ml MAGL, […], and […] in the total volume of 200 µl. All the measurements were performed in N = 2, n = 2 for inhibitors and N = 2, n = 4 for controls with Z′ value ≥0.6. The slope is determined in 5–15 min for all the experiments.
# The ABHD6 activity assay is based on the same principle as the MAGL activity assay described earlier, but with human ABHD6 overexpressing membrane preparations at a final protein concentration of 50 μg/ml and 200 µM AA-HNA. Other conditions are the same as those of the MAGL activity assay.
# [3] = target: T3, human ABHD12 (Homo sapiens, UniProt Q8N2K0); experiment: ABHD12 activity by competitive ABPP with FP-TAMRA; details: read-out: ABHD12 Inhibition (%); for activity / activity at 100 µM: 100 µM compound, competitive ABPP with probe FP-TAMRA (250 nM)
# T3 construct: expressed in transfected cells; host or cells: HEK293T (transient transfection; membrane fraction)
# T3 sequence (Q8N2K0 1-398): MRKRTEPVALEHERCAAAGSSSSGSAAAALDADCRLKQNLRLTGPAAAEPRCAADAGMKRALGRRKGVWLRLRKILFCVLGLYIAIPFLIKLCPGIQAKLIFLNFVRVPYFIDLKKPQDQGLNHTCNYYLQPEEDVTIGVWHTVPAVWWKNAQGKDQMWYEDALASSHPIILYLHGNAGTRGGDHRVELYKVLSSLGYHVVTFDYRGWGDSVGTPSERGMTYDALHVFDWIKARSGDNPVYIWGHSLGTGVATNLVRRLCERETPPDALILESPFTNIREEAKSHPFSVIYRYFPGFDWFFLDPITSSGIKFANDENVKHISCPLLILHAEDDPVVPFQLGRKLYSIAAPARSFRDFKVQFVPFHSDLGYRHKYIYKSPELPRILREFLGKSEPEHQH
# Description: as §1
# The ABHD12 activity assay is based on competitive activity-based protein profiling (ABPP) with human ABHD12 overexpressing membrane fractions. Briefly, the membrane proteome (1 mg/ml, 20 µl) was incubated at room temperature with 0.5 µl DMSO (vehicle) or inhibitor for 30 min. Subsequently, the samples were treated with the activity-based probe FP-TAMRA (250 nM, final concentration) for 20 min. The reactions were then quenched by 10 µl sample buffer (×4) (final concentrations: 60 mM Tris, pH 6.8, 2% (w/v) SDS, 10% (v/v) glycerol, 5% (v/v) β-mercaptoethanol, 0.01% (v/v) bromophenol blue). The samples were directly loaded and resolved on SDS-PAGE gel (10% acrylamide), which were then scanned using a ChemiDoc MP system (Cy3 settings, BioRad).
SMILES,activity at 100 µM [1] [%],activity at 100 µM [2] [%],activity at 100 µM [3] [%],other results
"C[N+](C)(C)CC(O)CC(=O)O (racemic) [compound 27, DL-Carnitine HCl]",–,–,–,activity [1]: 97.6%; activity [2]: 88.9%; activity [3]: 76.6%
"O=C(c1cccc(-c2ccc(-c3cn(C(=O)N4CCCCC4c4ccccc4)nn3)cc2)c1)N1CCCCC1 (stereo not shown) [KT185, reference compound]",–,–,–,effect on fluorescent signal of AA-HNA hydrolysis by ABHD6 ([2]; 10 µM): blocked
"O=C(O[C@@H]1Cc2c(O)cc(O)cc2O[C@@H]1c1cc(O)c(O)c(O)c1)c1cc(O)c(O)c(O)c1 [compound 2, (-)-Epigallocatechin Gallate]",38.9,95,59.6,–
"CC(=O)c1c(O)c(C)c(O)c2c1OC1=CC(=O)C(C(C)=O)C(=O)C12C [compound 3, D-Usnic Acid]",–,–,–,activity [1]: 85.6%; activity [2]: 97.9%; activity [3]: 68.8%
"O=C(O)CCCc1c[nH]c2ccccc12 [compound 4, 3-Indolebutyric acid]",85.4,97.2,77.2,–
"Cc1cc(=O)oc2cc(O)ccc12 [compound 5, 4-Methylumbelliferone]",90.1,92.5,71,–
"N#C[C@H](O[C@@H]1O[C@H](CO[C@@H]2O[C@H](CO)[C@@H](O)[C@H](O)[C@H]2O)[C@@H](O)[C@H](O)[C@H]1O)c1ccccc1 [compound 7, Amygdalin]",75.9,90.2,69.8,–
"C=C1CC[C@@H]2[C@](C)(CO)[C@H](O)CC[C@@]2(C)[C@@H]1C/C=C1/C(=O)OC[C@H]1O [compound 8, Andrographolide]",83.5,81.8,61.9,–
"OC[C@H]1O[C@@H](Oc2ccc(O)cc2)[C@H](O)[C@@H](O)[C@@H]1O [compound 10, Arbutin]",84.2,83.2,66.6,–
"C[C@H]1[C@H](OC(=O)CCC(=O)O)O[C@@H]2O[C@@]3(C)CC[C@H]4[C@H](C)CC[C@@H]1[C@@]24OO3 [compound 11, Artesunate]",106,46.5,56.2,–
"C[C@H]1[C@H](C)CC[C@]2(C(=O)O)CC[C@]3(C)C(=CC[C@@H]4[C@@]5(C)C[C@@H](O)[C@H](O)[C@@](C)(CO)[C@@H]5CC[C@]43C)[C@H]12 [compound 12, Asiatic acid]",86,95.6,72.4,–
"O=[N+]([O-])c1ncc[nH]1 [compound 13, Azomycin]",89.9,112,87.7,–
"O=c1cc(-c2ccccc2)oc2cc(O)c(O)c(O)c12 [compound 14, Baicalein]",64.3,131,82.7,–
"O=C(O)[C@H]1O[C@@H](Oc2cc3oc(-c4ccccc4)cc(=O)c3c(O)c2O)[C@H](O)[C@@H](O)[C@@H]1O [compound 15, Baicalin]",80.3,121,85.9,–
"COc1c(O)cc2c(c1O)[C@@H]1O[C@H](CO)[C@@H](O)[C@H](O)[C@H]1OC2=O [compound 16, Bergenin]",124,110,88,–
"CC(C)(C)[C@]1(O)CC2OC(=O)CC23C(=O)OC2OC(=O)[C@H](O)C231 (stereo partly shown) [compound 18, Bilobalide]",–,–,–,percent inhibition at 100 µM [1]: 97.8%; percent inhibition of ABHD6 at 100 µM [2]: 99.5%; percent inhibition at 100 µM [3]: 83%
"O=C(O)/C=C/c1ccc(O)c(O)c1 [compound 19, Caffeic Acid]",–,–,–,activity [1]: 90.1%; activity [2]: 108%; activity [3]: 83.7%
"O=C(/C=C/c1ccc(O)c(O)c1)O[C@@H]1C[C@](O)(C(=O)O)C[C@@H](O)[C@H]1O [compound 20, Chlorogenic acid]",95.2,102,78.1,–
"C=C[C@H]1CN2CC[C@H]1C[C@H]2[C@H](O)c1ccnc2ccccc12 [compound 21, Cinchonidine]",59.3,109,77.6,–
"O=c1cc(-c2ccccc2)oc2cc(O)cc(O)c12 [compound 22, Chrysin]",93.2,105,84,–
"O=c1cccc2n1C[C@@H]1CNC[C@H]2C1 [compound 25, Cytisine]",–,–,–,percent inhibition at 100 µM [1]: 99%; percent inhibition of ABHD6 at 100 µM [2]: 104%; percent inhibition at 100 µM [3]: 87.9%
"C[C@H]1[C@@H](O)O[C@@H]2O[C@@]3(C)CC[C@H]4[C@H](C)CC[C@@H]1[C@@]24OO3 [compound 26, Dihydroartemisinin]",92.5,89.2,81.1,–
"Cc1cc(O)c2c(c1)C(=O)c1cc(O)cc(O)c1C2=O [compound 28, Emodin]",63.2,87.9,67.6,–
"O=c1c(O)c(-c2ccc(O)c(O)c2)oc2cc(O)ccc12 [compound 29, Fisetin]",76.2,82.4,51.9,–
